Here are results for 4 molecules from patent publication US10675277B2, “Complexes of ivacaftor and its salts and derivatives, process for the preparation thereof and pharmaceutical compositions containing them” (NanGenex Nanotechnology Incorporated, priority 2016, dated 2020).

For orientation: solubility means the dissolved amount per volume that the medium holds.

Data set [1] is described as follows: Apparent solubility by UV-VIS after 100 nm filtration. Type of data set: physicochemical. The conditions noted are these: ultrapurified water, thermodynamic from solid, comparative formulation study, read-out: apparent solubility (comparative measurements, FIG. 15). The procedure: The solid complex Ivacaftor formulations were dispersed in ultrapurified water in 1-10 mg/mL Ivacaftor equivalent concentration range. The resulting solutions were filtered by 100 nm disposable syringe filter. The Ivacaftor content in the filtrate was measured by UV-Vis spectrophotometry and the apparent solubility was calculated. The filtrate may contain Ivacaftor complex particles which could not be filtrated out using 100 nm pore size filter.
The solid complex Ivacaftor formulations were dispersed in ultrapurified water in 1 mg/mL Ivacaftor equivalent concentration range. The resulting solutions were filtered by 100 nm disposable syringe filter. The Ivacaftor content in the filtrate was measured by UV-Vis spectrophotometry and the apparent solubility was calculated. The filtrate may contain Ivacaftor complex particles which could not be filtrated out using 100 nm pore size filter.

Data set [2] has as its target CFTR protein (Homo sapiens, UniProt P13569). The conditions noted are these: fraction of the potency of Ivacaftor; cited from earlier work.
The conditions of data set [3]: cited from earlier work; for share of the total dose eliminated as metabolite: oral administration of Ivacaftor.
For data set [4] the following is noted: cited from earlier work.
In data set [5] the test system is CYP3A. The conditions noted are these: in-vitro and clinical studies, humans; cited from earlier work.

SMILES strings stand for the structures.

Sequence of CFTR protein (P13569 whole entry): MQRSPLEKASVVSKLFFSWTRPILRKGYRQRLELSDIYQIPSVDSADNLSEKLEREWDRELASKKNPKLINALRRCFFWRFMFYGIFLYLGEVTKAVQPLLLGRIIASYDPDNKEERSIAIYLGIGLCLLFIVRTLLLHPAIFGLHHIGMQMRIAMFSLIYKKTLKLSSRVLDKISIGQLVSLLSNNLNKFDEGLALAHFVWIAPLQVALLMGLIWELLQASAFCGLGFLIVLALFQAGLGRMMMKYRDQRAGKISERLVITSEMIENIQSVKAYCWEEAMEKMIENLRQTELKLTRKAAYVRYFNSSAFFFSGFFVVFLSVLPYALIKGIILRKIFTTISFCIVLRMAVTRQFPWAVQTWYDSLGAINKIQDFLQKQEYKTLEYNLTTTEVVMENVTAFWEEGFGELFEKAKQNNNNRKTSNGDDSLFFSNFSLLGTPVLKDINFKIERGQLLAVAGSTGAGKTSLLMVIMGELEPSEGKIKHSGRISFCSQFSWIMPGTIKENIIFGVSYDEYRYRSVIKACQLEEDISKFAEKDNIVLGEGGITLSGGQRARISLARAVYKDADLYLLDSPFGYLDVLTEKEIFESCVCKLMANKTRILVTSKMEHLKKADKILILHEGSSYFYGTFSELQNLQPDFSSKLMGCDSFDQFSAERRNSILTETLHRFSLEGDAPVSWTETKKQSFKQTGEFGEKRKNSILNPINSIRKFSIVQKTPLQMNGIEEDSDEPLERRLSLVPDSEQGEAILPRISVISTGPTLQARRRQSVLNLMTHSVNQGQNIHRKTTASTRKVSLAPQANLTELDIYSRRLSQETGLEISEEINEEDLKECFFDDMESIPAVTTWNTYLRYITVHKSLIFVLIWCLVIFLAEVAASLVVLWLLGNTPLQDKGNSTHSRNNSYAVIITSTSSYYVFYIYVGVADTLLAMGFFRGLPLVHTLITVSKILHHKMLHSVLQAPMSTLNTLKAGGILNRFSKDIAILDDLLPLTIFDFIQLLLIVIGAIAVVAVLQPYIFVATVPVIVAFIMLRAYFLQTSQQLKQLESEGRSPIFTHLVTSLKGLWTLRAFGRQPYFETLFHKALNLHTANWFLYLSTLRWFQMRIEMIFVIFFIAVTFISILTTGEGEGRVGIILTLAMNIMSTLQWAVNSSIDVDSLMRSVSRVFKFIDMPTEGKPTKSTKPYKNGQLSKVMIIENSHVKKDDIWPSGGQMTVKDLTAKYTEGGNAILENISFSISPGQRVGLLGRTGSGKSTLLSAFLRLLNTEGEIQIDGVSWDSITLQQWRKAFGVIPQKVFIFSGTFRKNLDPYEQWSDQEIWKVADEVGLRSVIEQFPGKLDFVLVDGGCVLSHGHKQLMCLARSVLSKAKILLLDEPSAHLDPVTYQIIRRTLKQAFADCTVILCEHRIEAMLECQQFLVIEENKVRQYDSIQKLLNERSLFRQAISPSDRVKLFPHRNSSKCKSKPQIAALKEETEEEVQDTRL

Turning to `CC(C)(C)c1cc(C(C)(C)C)c(NC(=O)c2c[nH]c3ccccc3c2=O)cc1O` [crystalline Ivacaftor, N-(2,4-di-tert-butyl-5-hydroxyphenyl)-1,4-dihydro-4-oxoquinoline-3-carboxamide], the solubility in data set [1] is under 100 µg/mL.
`CC(C)(C)c1cc(C(C)(C)CO)c(O)cc1NC(=O)c1c[nH]c2ccccc2c1=O` [M1]: the “potency relative to Ivacaftor” value in data set [2] was “approximately one-sixth”. Further, the “share of the total dose eliminated as metabolite” value in data set [3] was 22%.
Consider `CC(C)(C)c1cc(C(C)(C)C)c(NC(=O)c2c[nH]c3ccccc3c2=O)cc1O` [Ivacaftor, N-(2,4-di-tert-butyl-5-hydroxyphenyl)-1,4-dihydro-4-oxoquinoline-3-carboxamide], for which, in data set [3] (human, in vivo), the “mean apparent clearance (CL/F), healthy subjects versus patients with CF” value is “similar”. Further, in data set [3] (oral administration), the “eliminated in the feces after metabolic conversion” value is 87.8% and the “urinary excretion as unchanged parent” value is reported as “negligible”. The “tmax (peak plasma concentrations)” value in data set [3] (single 150 mg oral dose, healthy volunteers, fed state) is reported as “approximately 4 hours”. Further, in data set [3] (single dose of 275 mg of KALYDECO, fed state), the “mean apparent volume of distribution (Vz/F), healthy subjects versus patients with CF” value is given as “similar”. The apparent terminal half-life result in data set [3] (single dose) is listed as “approximately 12 hours”. In data set [4], the solubility in water is recorded as under 0.05 microgram/mL. In addition, the metabolism result in data set [5] is listed as “primarily metabolized by CYP3A”.
`CC(C)(C)c1cc(C(C)(C)C(=O)O)c(O)cc1NC(=O)c1c[nH]c2ccccc2c1=O` [M6]: in data set [2], the “potency relative to Ivacaftor” value is “less than one-fiftieth”. Further, the “share of the total dose eliminated as metabolite” value in data set [3] is on record as 43%.
